Experiment [1] deals with H37Rv in J774A.1 macrophages. Put plainly: Macrophage intracellular bactericidal activity. The format is cell-based, Mycobacterium tuberculosis. To be noted: for CFU / log10 CFU: J774A.1, 72 h. As for the experimental part: The macrophage intracellular bactericidal activity is used to evaluate the anti-tuberculosis activities of BIBF1120 alone and BIBF1120+RFP in combination. The specific operating method includes: collecting J774A.1 macrophages into a 50 ml centrifuge tube, and taking 100 μl of macrophages and 900 μl of a cell culture medium, which are added into a 1.5 ml sterile centrifuge tube for 10-fold dilution; counting under a microscope; diluting macrophages to 4*10^5/ml and gently plating the macrophages into a 48-well clear microwell plate, with 1 ml in each well; culturing in an incubator with 5% of CO2 at 37° C. for 24 h after plating; co-culturing MOI=5:1 and 2*10^6 CFU/MLH37Rv with the macrophages; rinsing 2 times with sterile PBS 4 h later to remove extracellular Mycobacterium tuberculosis, and adding a new RPMI cell culture medium; putting into an incubator with 5% of CO2 at 37° C. and culturing for 72 h. discarding RPMI in the 48-well plate 3 days later, adding 200 μl of 0.1% SDS and placing in the incubator for 5 to 10 min, and adding 800 μl of the cell culture medium into each well and mixing well; and after cell lysis, taking 100 μl from each well for 10-, 100-, 1000-, 100000-fold dilution, and inoculating 100 μl on a 7H10 solid medium, spreading it evenly with a spreader and counting CFUs three weeks later.

The test system of experiment [2] is H37Rv strain. The experiment is described as follows: In vitro activity on Mycobacterium tuberculosis (Alamar Blue MIC). The following applies: H37Rv standard strain, 7H9 medium, 37° C. 7 d, Alamar Blue 24 h. The format is cell-based.
Experiment [3] concerns pulmonary and splenic Mycobacterium tuberculosis (H37Rv strain). The format is in vivo, C57BL/6 female mice. To be noted: after 8 weeks of administration; BIBF1120 added to HRZ.

Results on two compounds are retold here after patent US20250099458A1, “USE OF ANTI-IDIOPATHIC PULMONARY FIBROSIS DRUG NINTEDANIB IN TREATMENT OF TUBERCULOSIS” (Beijing Chest Hospital, Capital Medical University, priority 2022, published 2025).

Take `CO[C@H]1/C=C/O[C@@]2(C)Oc3c(C)c(O)c4c(O)c(c(/C=N/N5CCN(C)CC5)c(O)c4c3C2=O)NC(=O)/C(C)=C\C=C\[C@H](C)[C@H](O)[C@@H](C)[C@@H](O)[C@@H](C)[C@H](OC(C)=O)[C@@H]1C` [RFP, rifampicin]: the CFU in experiment [1] (Table 1, RFP 2 ug/ml) is listed as 502500; in experiment [1] (Table 2, RFP 2 ug/ml), 202500. Also, the “log10 CFU” value stood at 5.701 in experiment [1] (Table 1, RFP 2 ug/ml) and 5.306 in experiment [1] (Table 2, RFP 2 ug/ml).
Consider `CCS(=O)(=O)O.COC(=O)c1ccc2c(c1)NC(=O)/C2=C(\Nc1ccc(N(C)C(=O)CN2CCN(C)CC2)cc1)c1ccccc1` [BIBF1120, Nintedanib], for which 24.6 µg/mL was the least that counted as inhibitory in experiment [2] (MIC). Moreover, in experiment [3], the “sterilizing of the spleen and the lung” value is “achieves sterilizing of the spleen and the lung”. Moreover, the “bacteriostatic effect administered alone” value in experiment [1] (BIBF1120 alone, 25 ug/ml) is on record as “no significant bacteriostatic effect”. In addition, the CFU in experiment [1] (Table 1, BIBF1120 12.5 ug/ml) was 2400000; in experiment [1] (Table 1, BIBF1120 25 ug/ml), 1462500; in experiment [1] (Table 1, BIBF1120 50 ug/ml), 1077500; in experiment [1] (Table 2, BIBF1120 25 ug/ml), 2750000. Moreover, the “log10 CFU” value in experiment [1] (Table 1, BIBF1120 12.5 ug/ml) worked out at 6.380; in experiment [1] (Table 1, BIBF1120 25 ug/ml) it was 6.165; in experiment [1] (Table 1, BIBF1120 50 ug/ml) it was 6.032; in experiment [1] (Table 2, BIBF1120 25 ug/ml), 6.439.
